Test results taken from US10294202B2, “Pyrrolidinones as herbicides” (FMC Corporation, priority 2013, dated 2019).

Experiments:
[1] = tested on: barnyardgrass; test: Test A pre-/postemergence herbicide test; format: in vivo, Echinochloa crus-galli
Procedure, shortened: (§1)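 Seeds sown in loam soil/sand blend received a preemergence directed soil spray of test chemical in non-phytotoxic solvent with surfactant; postemergence plants (2–10 cm, one- to two-leaf stage) were sprayed with the same formulation. After about 10 days in greenhouse, injury was rated visually versus untreated controls, 0 (no effect) to 100 (complete control).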

[2] = tested on: corn; test: Test A pre-/postemergence herbicide test; format: in vivo, Zea mays; settings: Postemergence
Procedure, shortened: as §1

[3] = tested on: barnyardgrass; test: Test B flooded paddy test; format: in vivo, Echinochloa crus-galli; settings: Flood, scale of 0 to 100 where 0 is no effect and 100 is complete control
Procedure, shortened: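 2-leaf plants; flood 3 cm over soil; compound into paddy water; depth held. Greenhouse 13–15 d. Visual rating vs controls, 0 (no effect) to 100 (complete control); dash = not tested.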

[4] = tested on: kochia; test: Test A pre-/postemergence herbicide test; format: in vivo, Kochia scoparia
Procedure, shortened: as §1

[5] = tested on: lambsquarters; test: Test C pre-/postemergence herbicide test; format: in vivo, Chenopodium album
Procedure, shortened: (§2)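 Visual rating, 0 (no effect) to 100 (complete control), versus untreated controls after 13 to 15 days in the greenhouse. Pre: seeds in loam/sand, sprayed at planting. Post: 1- to 4-leaf plants (2 to 18 cm) in peat-based mix. Compounds in non-phytotoxic solvent plus surfactant.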

[6] = tested on: blackgrass; test: Test A postemergence herbicide test; format: in vivo, Alopecurus myosuroides
Procedure, shortened: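 Blackgrass and galium grown in pots of loam soil–sand blend, treated postemergence at 2–10 cm height, one- to two-leaf stage. Plants kept in greenhouse ~10 days, then visually rated for injury against untreated controls on a 0–100 scale (0 no effect, 100 complete control).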

[7] = tested on: galium; test: Test C pre-/postemergence herbicide test; format: in vivo, Galium aparine
Procedure, shortened: as §2

[8] = Postemergence, 125 g ai/ha, visual rating on 0 to 100 scale (0 no effect, 100 complete control), approx. 10 days
[9] = Postemergence, 500 g ai/ha, 0 to 100 scale (0 no effect, 100 complete control)
[10] = Preemergence, 125 g ai/ha, 0 to 100 scale where 0 is no effect and 100 is complete control
[11] = Preemergence, 500 g ai/ha, visual rating on 0 to 100 scale (0 no effect, 100 complete control)
[12] = 125 g ai/ha, visual rating on 0 to 100 scale (0 no effect, 100 complete control), approx. 10 days
[13] = 500 g ai/ha, 0 to 100 scale (0 no effect, 100 complete control)
[14] = Postemergence, 31 g ai/ha, scale 0 to 100 (0 no effect, 100 complete control)
[15] = Postemergence, 62 g ai/ha, scale 0 (no effect) to 100 (complete control)
[16] = Postemergence, 125 g ai/ha, scale 0 to 100 (0 no effect, 100 complete control)
[17] = Postemergence, 250 g ai/ha, scale 0 to 100 (0 no effect, 100 complete control)
[18] = Preemergence, 62 g ai/ha, scale 0 to 100 (0 no effect, 100 complete control)
[19] = Preemergence, 125 g ai/ha, scale 0 to 100
[20] = Preemergence, 31 g ai/ha, scale 0 to 100
[21] = Preemergence, 31 g ai/ha, scale 0 to 100, 0 is no effect and 100 is complete control
[22] = 125 g ai/ha, visual rating, 0 to 100 scale, 0 no effect, 100 complete control, approximately 10 days, preemergence
[23] = Postemergence, 125 g ai/ha, 0 to 100 scale, 0 is no effect, 100 is complete control
[24] = preemergence, 500 g ai/ha, 0 to 100 scale, 0 is no effect and 100 is complete control
[25] = 125 g ai/ha, 0 to 100 scale, 0 is no effect, 100 is complete control
[26] = Preemergence, 125 g ai/ha, scale 0 to 100 (0 no effect, 100 complete control)

Row | Structure (SMILES) | Plant response rating, Barnyardgrass [1, 8] | Plant response rating, Barnyardgrass [1, 9] | Plant response rating, Barnyardgrass [1, 10] | Barnyardgrass plant response rating [1, 11] | Plant response rating, Corn [2, 12] | Plant response rating, Corn [2, 13] | Plant response rating, Kochia [4, 8] | Plant response rating, Kochia [4, 10] | Kochia plant response rating [4, 11] | Lambsquarters plant response rating [5, 18] | Plant response rating, Lambsquarters [5, 19] | Plant response rating (scale of 0 to 100), Lambsquarters ([5]; Preemergence, 250 g ai/ha) | Plant response rating, Blackgrass [6, 12] | Plant response rating, Blackgrass [6, 13] | Galium plant response rating [7, 18] | Plant response rating, Galium [7, 19] | Plant response rating (scale of 0 to 100), Galium ([7]; Preemergence, 250 g ai/ha) | Plant response rating, Barnyardgrass ([3]; 500 g ai/ha) | Lambsquarters plant response rating [5, 21] | Galium plant response rating [7, 21] | also measured
1 | O=C1NCC(c2ccc(F)c(F)c2)C1C(=O)Nc1ccc(F)c(F)c1F (stereo not shown) [Compound 346] | 80 | 90 | 80 | 90 | 20 | 40 | 0 | 0 | 80 | 35 | 100 | 100 | 20 | 50 | 20 | 90 | 90 |  |  |  | Plant response rating, Barnyardgrass ([3]; 1000 g ai/ha): 85; Plant response rating, Lambsquarters [5, 14]: 45; Plant response rating, Lambsquarters [5, 15]: 5; Plant response rating, Lambsquarters [5, 16]: 5; Plant response rating, Lambsquarters [5, 17]: 65; Plant response rating, Lambsquarters [5, 20]: 35; Plant response rating, Galium [7, 14]: 30; Plant response rating, Galium [7, 15]: 25; Plant response rating, Galium [7, 16]: 40; Plant response rating, Galium [7, 17]: 70; Plant response rating, Galium [7, 20]: 10
2 | CC(C)c1cccc(C2CNC(=O)C2C(=O)Nc2ccccc2F)c1 (stereo not shown) [Compound 318] | 90 | 90 | 90 | 90 | 20 | 50 | 20 | 20 | 70 | 55 | 50 | 60 | 30 | 40 | 0 | 40 | 100 | 75 | 10 | 0 | Plant response rating, Kochia [4, 9]: 30
3 | O=C1NCC(c2ccc(Cl)cc2)C1C(=O)Nc1cccc(F)c1F (stereo not shown) [Compound 218] |  |  |  |  |  |  |  |  |  | 40 |  | 85 |  |  | 0 |  | 90 | 70 | 10 | 0 | Plant response rating, Barnyardgrass [1, 22]: 80; Plant response rating, Barnyardgrass [1, 23]: 60; Barnyardgrass plant response rating (0 to 100 scale, 0 is no effect, 100 is complete control) ([1]; Postemergence, 500 g ai/ha): 90; Plant response rating, Barnyardgrass [1, 24]: 90; Plant response rating, Corn [2, 25]: 20; Corn plant response rating (0 to 100 scale, 0 is no effect, 100 is complete control) ([2]; 500 g ai/ha): 30; Plant response rating, Kochia [4, 22]: 30; Plant response rating, Kochia [4, 23]: 50; Kochia plant response rating (0 to 100 scale, 0 is no effect, 100 is complete control) ([4]; Postemergence, 500 g ai/ha): 60; Plant response rating, Kochia [4, 24]: 70; Plant response rating, Lambsquarters [5, 26]: 75; Plant response rating, Blackgrass [6, 25]: 20; Blackgrass plant response rating (0 to 100 scale, 0 is no effect, 100 is complete control) ([6]; 500 g ai/ha): 40; Plant response rating, Galium [7, 26]: 85
